Assay results as given in ChEMBL document CHEMBL1158741, “Majusculoic acid, a brominated cyclopropyl fatty acid from a marine cyanobacterial mat assemblage” (2005).
≈ marks a conversion by molar mass, not a printed value. Calls of active or inactive are those of the source. The rule behind the calls is not given here.

Experiments:
[1] = system: Candida albicans; assay: Antifungal activity against Candida albicans ATCC 14503; format: functional
[2] = system: Nakaseomyces glabratus; assay: Antifungal activity against Candida glabrata; format: functional
[3] = system: Candida albicans; assay: Antifungal activity against fluconazole-resistant Candida albicans UCD FR1; format: functional, organism-based

Structure (SMILES)	MIC [1]	MIC [2]	Activity [3]
OC(Cn1cncn1)(Cn1cncn1)c1ccc(F)cc1F [FLUCONAZOLE]	1 µM (≈ 0.306 µg/mL)	–	–
CCC/C(Br)=C/C=C/CC[C@H]1C[C@@H]1CCC(=O)O [MAJUSCULOIC ACID]	8 µM (≈ 2.52 µg/mL)	19.3 µM (≈ 6.08 µg/mL)	inactive
